System: subjects with insomnia related to major depressive disorder
Experiment: DREAMDD clinical study: subjective sleep and daytime function (IVRS sleep diary)
Assay type: in vivo, human
Settings: for Subjective Sleep Latency, Mean (SD) / Subjective Sleep Latency, Median / Subjective Total Sleep Time, Mean (SD) / Subjective Total Sleep Time, Median / Subjective Wake Time After Sleep Onset (WASO), Mean (SD) / Subjective Wake Time After Sleep Onset (WASO), Median: 3 mg nightly + fluoxetine, ITT
Procedure: Depression Response to Eszopiclone in Adults With Major Depressive Disorder (DREAMDD): A Randomized, Double-Blind, Placebo-Controlled, Parallel-Group, 8-Week, Safety and Efficacy Study of Eszopiclone 3 mg Compared to Placebo in Subjects with Insomnia Related to Major Depressive Disorder
This study was a double-blind randomized, placebo-controlled, parallel group study. […] All subjects must satisfy DSM-IV criteria for insomnia related to major depression.
In addition, subjects were randomized at Visit 3 (end of baseline) to treatment with one of the following nightly (at bedtime): eszopiclone (3 mg) or matching placebo.
Primary Analysis: The primary analysis was conducted using the ITT population for the primary efficacy variable, mean WASO during the first week of double-blind medication. This endpoint was computed by averaging the daily WASO values obtained via IVRS from Visit 3 to Visit 4. The analysis was conducted using an analysis of variance model (ANOVA) with treatment and site as fixed effects. The analysis was performed on rank-transformed data, using the SAS MIXED procedure. The cumulative distribution function by treatment was plotted.
Other Secondary Analyses: Analysis of the secondary subjective sleep parameters, the 1, 2, 3, 4, 6, and 8 week post-randomization and double-blind averages of WASO (except week 1 average, which is the primary efficacy endpoint), TST, SL, mean number of awakenings, depth and quality of sleep, daytime alertness, ability to concentrate, physical well-being and ability to function was conducted on rank-transformed data using the same method as for the primary analysis.
Sleep Diary Test: Patients are to call between 6 a.m. and 10 a.m. and answer the following questions. 1) Did you take study medication last night? 2) What time did you go to bed to go to sleep last night? 3) Did you fall asleep last night? (If No, go to question 10) 4) How long did it take you to fall asleep last night? Hours+Minutes? 5) Last night, did you wake up during the night, after falling asleep? 5a) How many times, did you wake up after falling asleep? 5b) After falling asleep for the first time, how much total time did you spend awake during the night? Hours+Minutes? 6) How long did you sleep last night? Hours+Minutes? 7) What time did you get out of bed to rise for the day? 8) What number best describes the quality of your sleep last night? (0=poor and 10=excellent) 9) How would you describe the depth of your sleep last night? (0=very light and 10=very deep) 10) What number best describes how you generally felt yesterday during the day? (0=very sleepy and 10=wide awake and alert) 11) What number best describes your ability to concentrate or think clearly during the day yesterday (0=poor, 10=excellent) 12) What number best describes your sense of physical well being yesterday? (0=poor, 10=excellent) 13) How would you describe your ability to function during the day yesterday? (0=poor and 10=excellent)
Methods: Patients (n=545) met DSM-IV criteria for MDD and insomnia, including reported sleep latency (SL)≧30 min (median 73 min), wake time after sleep onset (WASO) ≧45 min (median 90 min), and total sleep time (TST)≦6.5h (median 294 min). All patients received fluoxetine QAM, and were randomly assigned to double-blind treatment with eszopiclone 3 mg or placebo QHS for 8 weeks. Subjective sleep and daytime function were assessed weekly.

[1] = each treatment week, p<0.03, 3 mg QHS + fluoxetine QAM, 8 weeks

## CN1CCN(C(=O)OC2c3nccnc3C(=O)N2c2ccc(Cl)cn2)CC1 (single isomer, unassigned; (+)) [Eszopiclone, (+) 6-(5-chloro-2-pyridinyl)-6,7-dihydro-7-oxo-5H-pyrrolo[3,4b]pyrazin-5-yl 4-methylpiperazine-1-carboxylate]
Double-Blind Average
  Subjective Sleep Latency, Mean (SD): 53.0 (52.6) Minutes
  Subjective Sleep Latency, Median: 39.3 min
  Subjective Total Sleep Time, Mean (SD): 395.5 (66.9) Minutes
  Subjective Total Sleep Time, Median: 400.0 min
  Subjective Wake Time After Sleep Onset (WASO), Mean (SD): 72.6 (58.7) Minutes
  Subjective Wake Time After Sleep Onset (WASO), Median: 57.4 min
Week 1
  Subjective Sleep Latency, Mean (SD): 62.6 (61.0) Minutes
  Subjective Sleep Latency, Median: 43.3 min
  Subjective Total Sleep Time, Mean (SD): 375.9 (76.5) Minutes
  Subjective Total Sleep Time, Median: 380.0 min
Week 2
  Subjective Sleep Latency, Mean (SD): 45.0 (52.2) Minutes
  Subjective Sleep Latency, Median: 30.0 min
  Subjective Total Sleep Time, Mean (SD): 393.6 (103.0) Minutes
  Subjective Total Sleep Time, Median: 397.5 min
Week 3
  Subjective Sleep Latency, Mean (SD): 54.1 (100.9) Minutes
  Subjective Sleep Latency, Median: 25.0 min
  Subjective Total Sleep Time, Mean (SD): 397.3 (88.1) Minutes
  Subjective Total Sleep Time, Median: 405.0 min
Week 4
  Subjective Sleep Latency, Mean (SD): 40.5 (50.5) Minutes
  Subjective Sleep Latency, Median: 24.2 min
  Subjective Total Sleep Time, Mean (SD): 395.6 (87.3) Minutes
  Subjective Total Sleep Time, Median: 390.0 min
  Subjective Wake Time After Sleep Onset (WASO), Mean (SD): 71.4 (80.3) Minutes
  Subjective Wake Time After Sleep Onset (WASO), Median: 42.5 min
Week 6
  Subjective Sleep Latency, Mean (SD): 43.8 (77.3) Minutes
  Subjective Sleep Latency, Median: 20.0 min
  Subjective Total Sleep Time, Mean (SD): 408.5 (84.3) Minutes
  Subjective Total Sleep Time, Median: 420.0 min
  Subjective Wake Time After Sleep Onset (WASO), Mean (SD): 76.5 (88.1) Minutes
  Subjective Wake Time After Sleep Onset (WASO), Median: 46.3 min
Week 8
  Subjective Sleep Latency, Mean (SD): 42.4 (42.3) Minutes
  Subjective Sleep Latency, Median: 30.0 min
  Subjective Total Sleep Time, Mean (SD): 405.9 (80.6) Minutes
  Subjective Total Sleep Time, Median: 411.4 min
  Subjective Wake Time After Sleep Onset (WASO), Mean (SD): 63.8 (74.1) Minutes
  Subjective Wake Time After Sleep Onset (WASO), Median: 43.1 min
Weeks 1, 3-5, and 7-8, p<0.04, 3 mg QHS + fluoxetine QAM
  WASO compared to placebo: significantly lower
Across the treatment period, p<0.005, 3 mg QHS + fluoxetine QAM
  ratings in sleep quality and depth compared to placebo: higher ratings
[1]
  sleep latency (SL) compared to placebo: significantly lower
  total sleep time (TST) compared to placebo: greater
Patients with depression-related secondary insomnia, co-administration with fluoxetine
  improvement in sleep: rapid and sustained improvement in sleep
p≦0.02, 3 mg QHS + fluoxetine QAM
  ratings of daytime alertness, ability to concentrate, and well-being compared to placebo: higher ratings

— patent US8097625B2, “Combination of sedative and a neurotransmitter modulator, and methods for improving sleep quality and treating depression” (priority 2003, dated 2012)
